pIC50: −log10 of the molar value.
tested on: MCF7; assay: Inhibitory concentration against proliferation of MCF-7 (ER Positive) breast cancer cells; type: functional, cell-based; conditions: Homo sapiens

| SMILES | pIC50 |
| --- | --- |
| COC(=O)[C@]12CCC(C)(C)CC1C1C(=O)C=C3[C@@]4(C)C=C(C#N)C(=O)[C@@](C)(COC(=O)CCCCCNC(=O)CCCC[C@@H]5SC[C@@H]6NC(=O)N[C@@H]65)[C@@H]4CC[C@@]3(C)[C@]1(C)CC2 (stereo partly specified) | 6.26 |
| COC(=O)[C@]12CCC(C)(C)CC1C1C(=O)C=C3[C@@]4(C)C=C(C#N)C(=O)[C@@](C)(CO)[C@@H]4CC[C@@]3(C)[C@]1(C)CC2 (stereo partly specified) | 7.10 |
| CC1(C)CC[C@]2(C(=O)NCCCCCCNC(=O)CCCCC3SC[C@@H]4NC(=O)N[C@H]34)CC[C@]3(C)C(C(=O)C=C4[C@@]5(C)C=C(C#N)C(=O)C(C)(C)[C@@H]5CC[C@]43C)C2C1 (stereo partly specified) | 5.48 |
| CC1(C)CC[C@]2(C(=O)NCCCC(=O)NCCCCCCNC(=O)CCCCC3SC[C@@H]4NC(=O)N[C@H]34)CC[C@]3(C)C(C(=O)C=C4[C@@]5(C)C=C(C#N)C(=O)C(C)(C)[C@@H]5CC[C@]43C)C2C1 (stereo partly specified) | 5.28 |
| COC(=O)[C@]12CCC(C)(C)C[C@H]1[C@H]1C(=O)C=C3[C@@]4(C)C=C(C#N)C(=O)C(C)(C)[C@@H]4CC[C@@]3(C)[C@]1(C)CC2 [BARDOXOLONE METHYL] | 7.30 |
| CC1(C)CC[C@]2(C(=O)O)CC[C@]3(C)[C@H](C(=O)C=C4[C@@]5(C)C=C(C#N)C(=O)C(C)(C)[C@@H]5CC[C@]43C)[C@@H]2C1 [BARDOXOLONE] | 6.80 |

Reference: ChEMBL document CHEMBL1138765, “Design, synthesis, and biological evaluation of biotin conjugates of 2-cyano-3,12-dioxooleana-1,9(11)-dien-28-oic acid for the isolation of the protein targets” (J Med Chem, 2004)
